Measurements from patent US20240116985A1, “STAPLED PEPTIDES AND METHODS THEREOF” (priority 2020, published 2024).
Converted amounts (≈) assume the structure as drawn. Read-outs that look alike come from different tables or passages of the source.

Assays:
[1] = target: T1, beta-catenin/TCF4 engagement (Homo sapiens, UniProt P35222); experiment: Nano-BRET target engagement assay (B-cat-Halo & TCF4-Luc in HEK293 cells); format: cell-based; conditions: read-out: NanoBRET Abs IC50
T1 construct: expressed in transfected cells; host or cells: HEK293
T1 sequence (P35222 1-781): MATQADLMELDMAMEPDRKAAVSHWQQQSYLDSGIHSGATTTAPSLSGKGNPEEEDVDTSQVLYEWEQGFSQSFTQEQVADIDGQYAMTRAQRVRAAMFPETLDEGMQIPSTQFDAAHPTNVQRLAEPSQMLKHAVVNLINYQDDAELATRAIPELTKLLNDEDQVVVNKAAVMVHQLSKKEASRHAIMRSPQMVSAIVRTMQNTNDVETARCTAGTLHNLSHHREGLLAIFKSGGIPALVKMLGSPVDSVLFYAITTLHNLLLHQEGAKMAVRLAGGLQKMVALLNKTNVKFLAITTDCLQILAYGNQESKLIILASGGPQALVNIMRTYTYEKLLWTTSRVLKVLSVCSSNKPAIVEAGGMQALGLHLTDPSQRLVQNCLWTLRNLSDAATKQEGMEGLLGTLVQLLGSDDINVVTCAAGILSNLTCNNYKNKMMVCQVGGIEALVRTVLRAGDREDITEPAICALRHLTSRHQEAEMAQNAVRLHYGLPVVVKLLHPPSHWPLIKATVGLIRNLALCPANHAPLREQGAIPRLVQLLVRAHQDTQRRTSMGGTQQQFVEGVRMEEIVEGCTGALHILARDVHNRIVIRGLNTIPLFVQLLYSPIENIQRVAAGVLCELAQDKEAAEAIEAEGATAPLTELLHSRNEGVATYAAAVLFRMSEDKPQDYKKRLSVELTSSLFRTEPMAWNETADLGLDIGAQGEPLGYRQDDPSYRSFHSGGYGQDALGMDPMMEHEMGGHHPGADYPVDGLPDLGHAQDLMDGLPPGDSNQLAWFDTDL

[2] = target: T2, full-length beta-Catenin (Uniprot ID P35222) (Homo sapiens, UniProt P35222); experiment: Fluorescence polarization IC50 (beta-catenin / 5FAM-TCF4 10-53 competition); format: binding
T2 construct: 10 nM full-length beta-Catenin (Uniprot ID P35222)
T2 sequence (P35222 1-781): T1 sequence (P35222 1-781)

Solubility in PBS = format: physicochemical
Summary of the method: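 PBS sample ultracentrifuged; supernatant run on HPLC vs. 50 μM peptide in DMSO standard. Solubility = (PBS peak area / DMSO peak area) × 50 uM.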

CHI Log D procedure = format: physicochemical; conditions: for CHI Log D: pH 7.4; for chromatographic logD: pH 7.4, CHI Log D
[3] = fluorescence polarization, read-out: beta-Catenin FP IC50

Row | IC50 ([1]; absolute IC50) [nM] | IC50 [2, 3] [nM] | IC50 ([2]; read-out: FP EC50) [nM] | Solubility (Solubility in PBS) [µM] | CHI Log D (CHI Log D procedure) | IC50 [1] [nM] | IC50 ([2]; read-out: beta-Catenin FP IC50) [nM] | Solubility (Solubility in PBS; Solubility (uM)) [µM] | chromatographic logD (CHI Log D procedure) | Compound
1 | 15700 | 19 | 19 | 50 (≈ 92.8 µg/mL) | 2.317 |  |  |  |  | CC(=O)N1CCC[C@]12CC=CCCCC1(CCCC=CCCCCCC[C@@](C)(C(=O)N[C@@H](Cc3ccccc3)C(=O)N[C@@H](Cc3csc4ccccc34)C(=O)N[C@@H](CCC(N)=O)C(N)=O)NC(=O)[C@H](CC(N)=O)NC(=O)[C@H](Cc3ccccc3)NC(=O)[C@H](C)NC(=O)[C@H](C)NC(=O)[C@H](CC(=O)O)NC(=O)[C@H](CC(=O)O)NC1=O)NC(=O)[C@H](CC(C)C)NC(=O)[C@H](CC(=O)O)NC2=O (stereo partly drawn) [I-563, Ac-PL3-Asp-Leu-B5-Asp-Asp-Ala-Ala-Phe-Asn-S8-Phe-BztA-Gln-NH2]
2 |  |  |  |  |  | 13700 | 33 | 20 (≈ 38.3 µg/mL) | 2.29 | CC(=O)N1CCC[C@]12CC=CCCCC1(CCCC=CCCCOC(=O)N3CC[C@@](C(=O)N[C@@H](Cc4ccccc4F)C(=O)N[C@@H](Cc4csc5ccccc45)C(=O)N[C@@H](CCC(N)=O)C(N)=O)(C3)NC(=O)[C@H]([C@@H](C)O)NC(=O)[C@H](Cc3ccccc3)NC(=O)[C@H](C)NC(=O)[C@H](C)NC(=O)[C@H](CC(N)=O)NC(=O)[C@H](CC(=O)O)NC1=O)NC(=O)[C@H](CC(C)(C)C)NC(=O)[C@H](CC(=O)O)NC2=O (stereo partly drawn) [I-1022, Ac-PL3-Asp-Npg-B5-Asp-Asn-Ala-Ala-Phe-Thr-PyrS2-2FF-BztA-Gln-NH2]
3 |  |  |  |  |  | 7800 | 33 | 43 (≈ 95.8 µg/mL) | 2.38 | CC(=O)N1CCC[C@]12CC=CCCCC1(CCCC=CCCCOC(=O)N3CC[C@@](C(=O)N[C@@H](Cc4ccsc4)C(=O)N[C@@H](Cc4csc5ccccc45)C(=O)N[C@@H](CCC(N)=O)C(=O)N[C@@H](CCCCNC(=O)CCc4cccc5ccccc45)C(N)=O)(C3)NC(=O)[C@H](CC(N)=O)NC(=O)[C@H](Cc3ccccc3)NC(=O)[C@H](C)NC(=O)[C@H](C)NC(=O)[C@H](CC(=O)O)NC(=O)[C@H](CC(=O)O)NC1=O)NC(=O)[C@H](CC(C)(C)C)NC(=O)[C@H](CC(=O)O)NC2=O (stereo partly drawn) [I-903, Ac-PL3-Asp-Npg-B5-Asp-Asp-Ala-Ala-Phe-Asn-PyrS2-3Thi-BztA-Gln-[1NapPr]Lys-NH2]
4 | 28500 | 12 | 12 | 34 (≈ 65.8 µg/mL) | 2.184 |  |  |  |  | CC(=O)N1CCC[C@]12CC=CCCCC1(CCCC=CCCCOC(=O)N3CC[C@@](C(=O)N[C@@H](Cc4ccccc4)C(=O)N[C@@H](Cc4csc5ccccc45)C(=O)N[C@@H](Cc4c[nH]cn4)C(N)=O)(C3)NC(=O)[C@H](CC(N)=O)NC(=O)[C@H](Cc3ccccc3)NC(=O)[C@H](C)NC(=O)[C@H](C)NC(=O)[C@H](CCC(=O)O)NC(=O)[C@H](CC(=O)O)NC1=O)NC(=O)[C@H](CC(C)(C)C)NC(=O)[C@H](CC(=O)O)NC2=O (stereo partly drawn) [I-693, Ac-PL3-Asp-Npg-B5-Asp-Glu-Ala-Ala-Phe-Asn-PyrS2-Phe-BztA-His-NH2]
5 |  |  |  |  |  | > 20000 | 33 | 41 (≈ 89.4 µg/mL) | 2.74 | CC(=O)N1CCC[C@]12CC=CCCCC1(CCCC=CCCCOC(=O)N3CC[C@@](C(=O)N[C@@H](Cc4ccsc4)C(=O)N[C@@H](Cc4csc5ccccc45)C(=O)N[C@@H](CCC(N)=O)C(N)=O)(C3)NC(=O)[C@H](CC(N)=O)NC(=O)[C@H](Cc3ccccc3)NC(=O)[C@H](CCCCNC(=O)C34CC5(C)CC(C)(CC(C)(C5)C3)C4)NC(=O)[C@H](C)NC(=O)[C@H](CC(=O)O)NC(=O)[C@H](CC(=O)O)NC1=O)NC(=O)[C@H](CC(C)(C)C)NC(=O)[C@H](CC(=O)O)NC2=O (stereo partly drawn) [I-900, Ac-PL3-Asp-Npg-B5-Asp-Asp-Ala-[Me3AdamantC]Lys-Phe-Asn-PyrS2-3Thi-BztA-Gln-NH2]
6 | 14300 | 15 | 15 | 44 (≈ 84.8 µg/mL) | 2.037 |  |  |  |  | CC(=O)N1CCC[C@]12CC=CCCCC1(CCCC=CCCCOC(=O)N3CC[C@@](C(=O)N[C@@H](Cc4ccccc4)C(=O)N[C@@H](Cc4csc5ccccc45)C(=O)N[C@@H](CCC(N)=O)C(N)=O)(C3)NC(=O)[C@H](CC(N)=O)NC(=O)[C@H](Cc3ccccc3)NC(=O)[C@H](C)NC(=O)[C@H](C)NC(=O)[C@H](CCC(=O)O)NC(=O)[C@H](CC(=O)O)NC1=O)NC(=O)[C@H](CC(C)(C)C)NC(=O)[C@H](CC(=O)O)NC2=O (stereo partly drawn) [I-684, Ac-PL3-Asp-Npg-B5-Asp-Glu-Ala-Ala-Phe-Asn-PyrS2-Phe-BztA-Gln-NH2]
